This is an account of results in patent US20030154507A1, “Synthetic herbicide resistance gene” (priority 2001, published 2003).

Series [1] deals with transgenic 2,4-D resistant cotton containing the naturally-occurring tfdA gene construct. The experiment in a line: Spray of 2,4-D res control seedlings, visual damage evaluation. The class given is in vivo. Conditions: 55 plants, 1/2 lb/acre acid equivalents at 24 days, evaluated after 10-14 days. From the text:
(§1) To verify that the inserted synthetic SAD genes were inheritable and to gain an indication of the number of gene insertions, seeds from the seven fertile SAD transgenic cotton plants were planted into hydroponic rock wool slabs (Hummert, St. Louis, Mo.) that had been saturated with Peters Professional water-soluble fertilizer (5-11-26 HYDRO-SOL, supplemented with calcium nitrate and magnesium sulfate to provide a complete nutrient compliment; Hummert, St. Louis, Mo.). The hydroponic rock wool slabs were placed on benches in a greenhouse, and nutrients were maintained at optimal levels using a non-recycling hydroponic watering system. Plants were grown under greenhouse conditions (28° C.±5° C. air temperature) for 24 days. At this point, the plants were removed to a spray hood, sprayed with 2,4-D amine at the normal field rate of 1/2 lb/acre acid equivalents, maintained in the hood for 24 hours to allow the 2,4-D to volatilize, and then placed back in the greenhouse.
(§2) The negative control of Coker 312 that had been regenerated from tissue culture did show some signs of resistance, so these ratios are not to be considered as definitive measures of Mendelian inheritance of the SAD gene.

Series [2] concerns SAD transgenic cotton plants. Briefly: Spray of seedlings from fertile SAD transgenic cotton lines, visual damage evaluation. It counts as in vivo. Conditions: 1/2 lb/acre acid equivalents at 24 days, evaluated after 10-14 days.
Text: as §1, §2

The subject of series [3] is transgenic cotton plants containing the SAD2 gene (Coker 312). The experiment in a line: Greenhouse spray of PCR-positive SAD2 transformed cotton plants with 2,4-D amine. It counts as in vivo. To be noted: of 95 plants; 1 lb/acre acid equivalents (twice normal field rate); sprayed at squaring stage or later. From the text:
The two binary vectors containing the SAD2 gene, pPZP211-PNPT-311-SAD2 and pPZP211-PNPT-512-SAD2, were individually introduced into the EHA 105 strain of Agrobacterium tumefaciens (Hood et al., Transgenic Research, 2:208-218 (1993)) by direct transformation as described by Walker-Peach and Velten, in Plant Molecular Biology Manual, section B1:1-19 (Gelvin, Shilperoort and Verma, eds., Kluwer Academic Publishers, Dordrecht, The Netherlands, 1994)). The constructs were subsequently introduced by Agrobacterium transfection into cotyledon explants from the cotton variety Coker 312 (Coker Seed Inc.). This was achieved by isolating sterile cotyledon tissue (derived from seedlings grown in culture from surface-sterilized seed as described by Trolinder and Gooden, Plant Cell Reports, 6:231-234 (1987)), generating explants (by use of a sterile hole punch), and submerging the explants in a 48-hour-old culture of EHA 105, containing the appropriate construct, grown at 28° C. […]
A total of 111 kanamycin-resistant cotton seedlings were generated (44 were generated in the pPZP211-PNPT-311-SAD2 transformations, and 67 in the pPZP211-PNPT-512-SAD2 transformations). Each plant was analyzed for the presence of the SAD synthetic coding sequence and the NPTII coding sequence by PCR to ensure the integrity of the inserted DNA. […]

In series [4] the test system is SAD transgenic cotton plants. The experiment in a line: Respray of undamaged SAD plants with 2,4-D amine. The class given is in vivo. To be noted: all 35 plants (5 from each of 7 SAD lines); resprayed at 1/2 lb/acre acid equivalents 14 days after first evaluation. As for the experimental part: (§3) Each plant tested positive for the SAD construct by PCR. These plants were grown for a further 14 days and then resprayed with 2,4-D amine at the normal field rate of 1/2 lb/acre acid equivalents. […] The 35 plants were grown to maturity, and seeds were collected.

The subject of series [5] is negative controls (cotton). The experiment in a line: Respray event, negative controls. It counts as in vivo. To be noted: all negative controls; 1/2 lb/acre acid equivalents. The procedure:
as §3

Series [6] has as its system Coker 312 (not transgenic) regenerated from somatic embryos. Briefly: Spray of 2,4-D sens control seedlings, visual damage evaluation. It counts as in vivo, cotton. To be noted: 45 plants, 1/2 lb/acre acid equivalents at 24 days, evaluated after 10-14 days.
Text: as §1, §2

In series [7] the test system is plants. Conditions: in vivo; cited from earlier work.

Structures are written as SMILES.

For `CNC.O=C(O)COc1ccc(Cl)cc1Cl` [2,4-D amine], the “No Damage (number of plants)” value is 7 in series [1]; 16 in series [2] (line 311-22-1-4, 43 plants); 6 in series [2] (line 311-22-1-5, 47 plants); 14 in series [2] (line 311-22-1-8, 56 plants); 8 in series [2] (line 512-21-1-5, 56 plants); 7 in series [2] (line 512-21-4-3, 30 plants). Besides, the “No Damage (number of plants)” value in series [2] (line 512-21-4-5, 41 plants) worked out at 5; in series [2] (line 512-24-4-4, 63 plants), 7; in series [6], 0. Besides, the “Severe damage (number of plants)” value came to 15 in series [1]; 11 in series [2] (line 311-22-1-4, 43 plants); 23 in series [2] (line 311-22-1-5, 47 plants); 14 in series [2] (line 311-22-1-8, 56 plants); 14 in series [2] (line 512-21-1-5, 56 plants); 3 in series [2] (line 512-21-4-3, 30 plants). Moreover, the “Severe damage (number of plants)” value was 12 in series [2] (line 512-21-4-5, 41 plants); 35 in series [2] (line 512-24-4-4, 63 plants); 25 in series [6]. In addition, the “Some symptoms (number of plants)” value in series [1] turned out to be 33; in series [2] (line 311-22-1-4, 43 plants), 16; in series [2] (line 311-22-1-5, 47 plants), 18; in series [2] (line 311-22-1-8, 56 plants), 28; in series [2] (line 512-21-1-5, 56 plants), 34; in series [2] (line 512-21-4-3, 30 plants) it was 20. Further, the “Some symptoms (number of plants)” value is listed as 24 in series [2] (line 512-21-4-5, 41 plants); 21 in series [2] (line 512-24-4-4, 63 plants); 20 in series [6]. In addition, in series [3], the “plants that survived treatment with little or no herbicide damage” value amounted to 22. Moreover, the damage following respray entry in series [4] was “no damage”. For the same molecule, the survival following respray result in series [5] is “did not survive”.
In the case of `Oc1ccc(Cl)cc1Cl` [DCP, 2,4-dichlorophenol], the “toxicity to plants relative to 2,4-D” value in series [7] is listed as “much less toxic to plants than 2,4-D”.
